These results are taken from ChEMBL document CHEMBL3407429, “Multifunctional tacrine-trolox hybrids for the treatment of Alzheimer's disease with cholinergic, antioxidant, neuroprotective and hepatoprotective properties” (Eur J Med Chem, 2015).

The test system of data set [1] is Rattus norvegicus. Briefly: Hepatotoxicity in Sprague-Dawley rat at 6 umol/100g body weight, ip measured after 24 hrs by histomorphological study. The class given is toxicity, organism-based. The following applies: in vivo.
The subject of data set [2] is PC-12. The data set can be described thus: Neuroprotective activity against H2O2-induced oxidative stress in rat PC12 cells assessed as inhibition of cell death preincubated at 3.125 to 6.25 uM for 2 hrs before H2O2 addition measured after 24 hrs by MTT assay. The class given is functional, cell-based.
Data set [3] addresses Acetylcholinesterase (Electrophorus electricus) (UniProt O42275). The data set can be described thus: Mixed-type inhibition of electric eel AChE using acetylthiocholine iodide as substrate by Lineweaver-Burk double reciprocal plot method.
In data set [4] the target is Cholinesterase (Equus caballus, UniProt P81908).
Description: Inhibition of equine serum BuChE using S-butyrylthiocholine iodide as substrate preincubated for 6 mins before substrate addition by Ellman's method
Data set [5] in a line: Cytotoxicity against rat PC12 cells assessed as reduction in cell viability at 1.563 to 12.5 uM after 48 hrs by MTT assay. The class given is cell-based. The following applies: pc-12, 48 h. (Tetrazolium assays rely on reduction of a dye to a coloured formazan, in cell work by metabolically active cells.)
Data set [6] concerns PC-12. The data set can be described thus: Neuroprotective activity against H2O2-induced oxidative stress in rat PC12 cells assessed as cell viability preincubated at 12.5 to 6.25 uM for 2 hrs before H2O2 addition measured after 24 hrs by MTT assay. The data set is classed as functional, cell-based.
A short description of a further data set: in vitro. The following applies: PAMPA. On the technique in general: PAMPA measures passive passage across an artificial lipid membrane.
Data set [7] relates to Rattus norvegicus. Briefly: Hepatotoxicity in Sprague-Dawley rat assessed as increase in alanine aminotransferase activity in serum at 6 umol/100g body weight, ip measured up to 72 hrs. The data set is classed as toxicity, organism-based. The following applies: in vivo.
Data set [8] concerns Rattus norvegicus. Briefly: Hepatotoxicity in Sprague-Dawley rat assessed as increase in aspartate aminotransferase activity in serum at 6 umol/100g body weight, ip measured up to 72 hrs. The class given is toxicity, organism-based. The following applies: in vivo.
Data set [9] concerns the target Acetylcholinesterase (Electrophorus electricus, UniProt O42275).
Description: Inhibition of electric eel AChE using acetylthiocholine iodide as substrate preincubated for 6 mins before substrate addition by Ellman's method
For data set [10], the target named is Cholinesterase (Homo sapiens, UniProt P06276).
Description: Inhibition of human serum BuChE using S-butyrylthiocholine iodide as substrate preincubated for 6 mins before substrate addition by Ellman's method
The target in data set [11] is Acetylcholinesterase (Homo sapiens, UniProt P22303).
Description: Inhibition of human erythrocyte AChE using acetylthiocholine iodide as substrate preincubated for 6 mins before substrate addition by Ellman's method

Structures are written as SMILES. Active and inactive are the calls of the source. The rule behind the calls is not given here.

Sequence of Cholinesterase (Homo sapiens, UniProt P06276) (P06276 whole entry): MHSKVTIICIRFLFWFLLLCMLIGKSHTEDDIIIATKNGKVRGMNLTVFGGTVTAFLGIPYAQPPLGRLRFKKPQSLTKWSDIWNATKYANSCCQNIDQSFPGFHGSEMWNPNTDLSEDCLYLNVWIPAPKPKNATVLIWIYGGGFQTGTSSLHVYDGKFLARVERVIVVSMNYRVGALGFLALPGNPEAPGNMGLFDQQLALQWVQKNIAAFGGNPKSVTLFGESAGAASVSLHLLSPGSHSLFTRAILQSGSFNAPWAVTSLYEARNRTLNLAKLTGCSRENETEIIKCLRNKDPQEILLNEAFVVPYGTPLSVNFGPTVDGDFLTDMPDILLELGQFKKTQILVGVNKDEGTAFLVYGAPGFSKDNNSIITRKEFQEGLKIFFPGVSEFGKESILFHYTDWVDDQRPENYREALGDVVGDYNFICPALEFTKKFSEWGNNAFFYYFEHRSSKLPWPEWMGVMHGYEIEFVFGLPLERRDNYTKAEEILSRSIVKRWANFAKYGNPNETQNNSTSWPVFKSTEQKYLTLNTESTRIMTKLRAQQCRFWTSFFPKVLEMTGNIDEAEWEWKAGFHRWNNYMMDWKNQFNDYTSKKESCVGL
Sequence of Acetylcholinesterase (Electrophorus electricus, UniProt O42275) (O42275 whole entry): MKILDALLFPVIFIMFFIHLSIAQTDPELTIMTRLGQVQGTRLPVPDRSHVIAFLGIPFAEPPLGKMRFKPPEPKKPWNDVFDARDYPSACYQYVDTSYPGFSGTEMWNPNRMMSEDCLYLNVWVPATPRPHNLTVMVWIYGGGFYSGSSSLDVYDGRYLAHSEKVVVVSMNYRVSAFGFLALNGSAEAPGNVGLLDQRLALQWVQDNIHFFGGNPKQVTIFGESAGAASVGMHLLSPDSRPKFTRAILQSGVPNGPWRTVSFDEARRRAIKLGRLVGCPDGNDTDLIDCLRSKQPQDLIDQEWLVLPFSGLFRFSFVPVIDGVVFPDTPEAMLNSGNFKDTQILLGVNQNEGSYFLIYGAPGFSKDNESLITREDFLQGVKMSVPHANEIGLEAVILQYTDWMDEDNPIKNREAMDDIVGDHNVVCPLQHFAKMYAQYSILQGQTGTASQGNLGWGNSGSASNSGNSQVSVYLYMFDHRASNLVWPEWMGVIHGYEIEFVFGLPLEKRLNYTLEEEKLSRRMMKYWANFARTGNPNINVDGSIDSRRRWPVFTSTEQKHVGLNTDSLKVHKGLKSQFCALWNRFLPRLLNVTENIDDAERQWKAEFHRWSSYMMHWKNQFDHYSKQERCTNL
Sequence of Acetylcholinesterase (Homo sapiens, UniProt P22303) (P22303 whole entry): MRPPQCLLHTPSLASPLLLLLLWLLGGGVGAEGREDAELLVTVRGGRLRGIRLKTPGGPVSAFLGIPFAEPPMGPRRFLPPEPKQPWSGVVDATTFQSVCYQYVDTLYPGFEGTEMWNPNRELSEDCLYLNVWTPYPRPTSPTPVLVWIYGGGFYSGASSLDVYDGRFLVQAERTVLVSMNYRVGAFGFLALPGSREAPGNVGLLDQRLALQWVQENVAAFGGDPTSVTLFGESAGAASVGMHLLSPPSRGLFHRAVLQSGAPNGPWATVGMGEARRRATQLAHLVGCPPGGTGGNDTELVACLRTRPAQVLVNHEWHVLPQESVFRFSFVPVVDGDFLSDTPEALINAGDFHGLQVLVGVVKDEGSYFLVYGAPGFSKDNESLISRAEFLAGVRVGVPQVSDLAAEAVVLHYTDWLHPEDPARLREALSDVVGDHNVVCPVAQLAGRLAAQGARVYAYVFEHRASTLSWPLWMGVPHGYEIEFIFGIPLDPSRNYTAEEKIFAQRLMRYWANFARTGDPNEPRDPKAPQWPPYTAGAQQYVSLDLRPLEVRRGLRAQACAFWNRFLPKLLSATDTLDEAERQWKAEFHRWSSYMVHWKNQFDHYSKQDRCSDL
Sequence of Cholinesterase (Equus caballus, UniProt P81908) (P81908 whole entry): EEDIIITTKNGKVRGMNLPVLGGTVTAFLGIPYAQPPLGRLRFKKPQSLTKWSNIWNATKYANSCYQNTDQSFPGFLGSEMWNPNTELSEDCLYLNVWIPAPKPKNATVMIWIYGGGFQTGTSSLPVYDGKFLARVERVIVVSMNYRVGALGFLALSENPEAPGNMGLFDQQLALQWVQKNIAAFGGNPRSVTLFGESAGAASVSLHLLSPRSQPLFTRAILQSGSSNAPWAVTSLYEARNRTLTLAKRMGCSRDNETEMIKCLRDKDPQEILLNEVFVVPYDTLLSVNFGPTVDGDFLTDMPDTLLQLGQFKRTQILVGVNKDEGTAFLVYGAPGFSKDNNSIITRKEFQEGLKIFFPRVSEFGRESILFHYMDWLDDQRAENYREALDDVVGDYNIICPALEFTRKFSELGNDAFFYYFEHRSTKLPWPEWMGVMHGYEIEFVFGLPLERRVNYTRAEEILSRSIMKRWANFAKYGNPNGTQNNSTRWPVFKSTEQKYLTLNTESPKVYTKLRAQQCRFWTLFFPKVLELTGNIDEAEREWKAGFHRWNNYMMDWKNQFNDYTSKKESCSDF
Sequence of Acetylcholinesterase (Electrophorus electricus) (O42275 24-633 limits assumed): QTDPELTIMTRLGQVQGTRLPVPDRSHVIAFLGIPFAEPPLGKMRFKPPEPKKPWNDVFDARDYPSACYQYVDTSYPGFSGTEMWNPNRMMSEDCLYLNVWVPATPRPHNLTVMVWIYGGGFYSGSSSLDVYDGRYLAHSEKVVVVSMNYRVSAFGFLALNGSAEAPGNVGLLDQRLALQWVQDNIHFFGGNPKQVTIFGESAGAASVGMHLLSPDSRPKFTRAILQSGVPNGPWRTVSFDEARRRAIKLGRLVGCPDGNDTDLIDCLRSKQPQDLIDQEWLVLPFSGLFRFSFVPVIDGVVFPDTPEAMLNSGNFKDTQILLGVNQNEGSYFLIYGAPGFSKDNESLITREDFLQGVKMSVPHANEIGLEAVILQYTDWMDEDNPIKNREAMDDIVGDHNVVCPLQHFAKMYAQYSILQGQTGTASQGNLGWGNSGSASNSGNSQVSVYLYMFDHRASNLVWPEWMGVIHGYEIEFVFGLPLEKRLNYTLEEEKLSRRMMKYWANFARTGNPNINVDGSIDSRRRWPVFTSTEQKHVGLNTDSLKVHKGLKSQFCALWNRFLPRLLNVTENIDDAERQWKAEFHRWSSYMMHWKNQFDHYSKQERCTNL
Description for in vitro: Permeability of the compound in PBS and EtOH by PAMPA method

The IC50 is the concentration that gives 50% inhibition. A lower IC50 goes with higher potency. By Papp is commonly meant a coefficient for how fast a substance crosses the barrier. Read a high Papp as fast passage. `Cc1c(C)c2c(c(C)c1O)CCC(C)(C(=O)NCCCCCCNc1c3c(nc4ccccc14)CCCC3)O2` (configuration not stated) came in with an IC50 of 0.0487 µM. The Activity entry in the data set on Rattus norvegicus [1] is “Non-toxic”. The inhibition entry in the data set with PC-12 [2] was “Active”. Further, the inhibition result in [3] is “Active”. Also, the IC50 on Cholinesterase [4] was 0.0222 µM. The Activity result in data set [5] is “Non-toxic”. Further, in the data set with PC-12 [6], the inhibition result was “inactive”. The Papp in the data set “in vitro” turned out to be 88.7 nm/s. The Activity result with Rattus norvegicus [7] is “Non-toxic”. In addition, the Activity entry with Rattus norvegicus [8] is “Non-toxic”. Moreover, the IC50 against Acetylcholinesterase [9] was 0.0098 µM. Also, the concentration for half-maximal inhibition (IC50) against Cholinesterase [10] amounted to 0.0205 µM. The IC50 against Acetylcholinesterase [11] came to 0.0235 µM.
For the compound `Cc1c(C)c2c(c(C)c1O)CCC(C)(C(=O)O)O2` (configuration not stated) [TROLOX], it took 0.0356 µM to reach half-maximal inhibition (IC50).
`CCn1cc(C(=O)O)c(=O)c2cc(F)c(N3CCNC(C)C3)c(F)c21` (configuration not stated) [LOMEFLOXACIN]: the Papp in the data set “in vitro” is 8 nm/s.
Take `Cc1c(C)c2c(c(C)c1O)CCC(C)(C(=O)NCCCCCCCCNc1c3c(nc4ccccc14)CCCC3)O2` (configuration not stated): half-maximal inhibition (IC50) required 0.0473 µM. Also, at Cholinesterase [4], half-maximal inhibition (IC50) was put at 0.151 µM. This compound also had an IC50 at Acetylcholinesterase [9] of 0.228 µM. Moreover, at Cholinesterase [10], the midpoint of inhibition, the IC50, lay at 0.0347 µM. This compound displayed a 50% inhibitory concentration (IC50) against Acetylcholinesterase [11] of 0.226 µM.
For the compound `C[C@]12CCC(=O)C=C1CC[C@@H]1[C@@H]2CC[C@@]2(C)[C@H]1CC[C@]2(O)C(=O)CO` [CORTODOXONE], the Papp in the data set “in vitro” is 25 nm/s.
In turn, `Cc1c(C)c2c(c(C)c1O)CCC(C)(C(=O)NCCCCCCCNc1c3c(nc4ccccc14)CCCC3)O2` (configuration not stated) gave a 50% inhibitory concentration (IC50) of 0.0469 µM. In addition, the 50% inhibitory concentration (IC50) against Cholinesterase [4] is 0.0617 µM. The compound also registered a half-maximal inhibitory concentration (IC50) against Acetylcholinesterase [9] of 0.0924 µM. Besides, the IC50 at Cholinesterase [10] stood at 0.0192 µM. The same compound displayed a concentration for half-maximal inhibition (IC50) at Acetylcholinesterase [11] of 0.144 µM.
For the compound `Cc1c(C)c2c(c(C)c1O)CCC(C)(C(=O)NCCNc1c3c(nc4ccccc14)CCCC3)O2` (configuration not stated), the IC50 was determined as 0.0304 µM. The same compound showed an IC50 at Cholinesterase [4] of 0.0413 µM. Half-maximal inhibition at Acetylcholinesterase [9] (IC50) was put at 0.15 µM. At Cholinesterase [10], half-maximal inhibition (IC50) was put at 0.0563 µM. Moreover, 0.284 µM corresponded to half-maximal inhibition against Acetylcholinesterase [11] (IC50).
Compound `CN1C(C(=O)Nc2ccccn2)=C(O)c2ccccc2S1(=O)=O` [PIROXICAM] gave a Papp in the data set “in vitro” of 6 nm/s.
`Cc1c(C)c2c(c(C)c1O)CCC(C)(C(=O)NCCCCNc1c3c(nc4ccccc14)CCCC3)O2` (configuration not stated) returned an IC50 of 0.0442 µM. The compound further returned a 50% inhibitory concentration (IC50) at Cholinesterase [4] of 0.0156 µM. At Acetylcholinesterase [9], the IC50 worked out at 0.558 µM. Moreover, on Cholinesterase [10], half-maximal inhibition (IC50) required 0.0052 µM. Half-maximal inhibition on Acetylcholinesterase [11] (IC50) was put at 0.535 µM.
In the case of `Cc1c(C)c2c(c(C)c1O)CCC(C)(C(=O)NCCCCCNc1c3c(nc4ccccc14)CCCC3)O2` (configuration not stated), the IC50 was determined as 0.0407 µM. The IC50 against Cholinesterase [4] came to 0.0354 µM. The compound also returned a half-maximal inhibitory concentration (IC50) against Acetylcholinesterase [9] of 0.25 µM. At Cholinesterase [10], the IC50 is 0.0102 µM. The compound further showed an IC50 at Acetylcholinesterase [11] of 0.215 µM.
Turning to `Cc1c(C)c2c(c(C)c1O)CCC(C)(C(=O)NCCCCCCCCCCNc1c3c(nc4ccccc14)CCCC3)O2` (configuration not stated), the IC50 turned out to be 0.0432 µM. Further, the IC50 at Cholinesterase [4] was determined as 0.263 µM. At Acetylcholinesterase [9], this compound came in with an IC50 of 0.387 µM. Besides, it took 0.11 µM to reach half-maximal inhibition at Cholinesterase [10] (IC50). On Acetylcholinesterase [11], this compound gave an IC50 of 0.453 µM.
